Reference: patent US20090221530A1, “Relaxase Modulators and Methods of Using Same” (priority 2005, published 2009)
Converted amounts (≈) assume the structure as drawn. Like-named read-outs stand apart in the source and are kept apart here.

Assays:
[1] = system: DNA conjugation from F+ (JS10) cells to F− (JS4) cells; experiment: Mating assay (conjugative DNA transfer); format: cell-based, E. coli; conditions: Escherichia coli, F+ (JS10) donors to F− (JS4) recipients; FIG. 4D; read-out: EC50 of inhibition of DNA conjugation
Procedure: Mating assays were performed as described (Matson et al., 2001). Briefly, the donor strain JS10 contains pOX38T, a mini-F-plasmid capable of conjugative transfer, which also carries a Tet resistance gene, while the recipient strain JS4 is F− and Str^r. Donor and recipient strains from saturated overnight cultures grown under antibiotic selection were diluted 1:50 into LB and grown to an OD600 of approximately 0.6 in the absence of selection at 37° C. Donors and recipients were then mixed at a ratio of one donor to nine recipients in the presence of the desired concentrations of pNp (e.g., 10, 100 μM, 1, 10 mM) and incubated at 37° C. for five minutes. Following this incubation, the mating mixtures were diluted 1:10 into LB containing the desired concentration of pNp and incubated for a further 30 minutes. Following mating, the mixtures were vortexed to disrupt mating pairs and serially diluted into 0.9% sterile saline. Dilutions, predicted to result in 300-500 colonies on positive control plates, were plated on LB-agar plates containing both streptomycin and tetracycline in order to select for transconjugants and counter select for donors and unmated recipients. Eight replicate samples of each final dilution were plated, the colony counts culled for outliers at 95% confidence, and then averaged.

[2] = system: F+ or F− cells; experiment: 24 hr. MIC bounds (turbid/clear wells); format: cell-based, E. coli; conditions: Escherichia coli, 8x serial dilutions, bounds identical for F+ or F− cells

`O=P(O)(O)NP(=O)(O)O` [pNp, imidodiphosphate] gave an EC50 [1] of roughly 10 µM, an MIC ([2]; clear wells after 24 hr. incubation, read-out: 24 hr. MIC bounds, upper) of 100 mM (≈ 17700 µg/mL) and an MIC ([2]; turbid wells after 24 hr. incubation, read-out: 24 hr. MIC bounds, lower) of 12.5 mM (≈ 2210 µg/mL).
